Experimental data: US20130266557A1, “METHODS FOR TREATMENT OF A SARCOMA USING AN EPIMETABOLIC SHIFTER (COENZYME Q10)” (priority 2009, published 2013)

Tests used:
Experiment in all cases: Induction of early apoptosis by CoQ10
Assay type in all cases: cell-based
[1] = system: Aortic smooth muscle (HASMC); conditions: Heart: Aortic smooth muscle (HASMC)
Method: (§1) The effects of Coenzyme Q10 treatment on a variety of oncogenic and normal cell lines were examined and compared. The sensitivity of cells to Coenzyme Q10 was assessed by monitoring induction of apoptosis. CoQ10 treatment of cells was carried out as described in detail below in the Materials and Methods. Induction of apoptosis was assessed in the treated cells by monitoring indicators of early apoptosis (e.g., Bcl-2 expression, caspase activation and by using annexin V assays) as described below. From these studies, the minimal CoQ10 dosage, e.g., concentration of CoQ10 and time of treatment, required to induce apoptosis in the panel of cell lines was determined.
(§2) Cells were cultured in T-75 flasks with relevant medium supplemented with 10% Fetal Bovine Serum (FBS), 1% PSA (penicillin, streptomycin, amphotericin B) (Invitrogen and Cellgro) in a 37° C. incubator with 5% CO2 levels until 70-80% confluence was reached. To harvest cells for treatment, flasks were primed with 1 mL Trypsin, aspirated, trypsinized with an additional 3 mL, and incubated at 37° C. for 3-5 minutes. Cells were then neutralized with an equal volume of media and the subsequent solution was centrifuged at […] for 8 minutes. The supernatant was aspirated and the cells were resuspended with 8.5 ml of media. A mixture of 500 ul of the resuspension and 9.5 ml of […] was read twice by a coulter counter and the appropriate number of cells to be seeded into each dish was determined. Control and concentration ranging from 0-200 μM groups were examined in triplicate. From a 500 μM CoQ-10 stock solution, serial dilutions were performed to achieve desired experimental concentration in appropriate dishes. Dishes were incubated in a 37° C. incubator with 5% CO2 levels for 0-72 hours depending on cell type and experimental protocol.
(§3) The volume of sample to load per well was determined using the raw mean concentration of protein obtained from the BCA protein assay. Approximately 30-60 μg of protein were loaded for each treatment time point. Proteins were run in triplicate on 12% Tris-HCl ready gels (Bio-Rad) or hand cast gels in 1× running buffer at 85 and 100 volts. Proteins were then transferred onto nitrocellulose paper for an hour at 100 volts, and blocked for another hour in a 5% milk solution. Membranes were placed in primary antibody (1 uL Ab:1000 uL TBST) (Cell Signaling) overnight at […] The following day, membranes were washed three times for ten minutes each with Tris-Buffered Saline Tween-20 (TBST), and secondary antibody (anti-rabbit; 1 uL Ab: 1000 uL TBST) was applied for an hour at […] Membranes were washed again three times for ten minutes with TBST and chemoluminescence using Pico or Femto substrate was completed (Pierce). Membranes were then developed at time intervals that produced the best visual results. After developing, membranes were kept in TBST at […] until Actin levels could be measured.
(§4) Cells were washed twice in PBS10× and resuspended in Binding Buffer (0.1 M HEPES, pH 7.4; 1.4 M NaCl; 25 mM CaCl2). Samples of 100 μl were added to a culture tube with 5 μl of annexin-PE dye or […]. The cells were mixed and incubated without light at room temperature for 15 minutes. After which, 400 μl of 1×Binding Buffer was added to each sample and they were subjected to analysis by flow cytometry.

[2] = system: BT-20
Method: as §1, §2, §3, §4

[3] = system: Ewing's sarcoma (NCI)
Method: as §1, §2, §3, §4

[4] = system: Fibroblasts (nFib); conditions: SKIN: Fibroblasts (nFib)
Method: as §1, §2, §3, §4

[5] = system: Hep3B
Method: as §1, §2, §3, §4

[6] = system: HepG2
Method: as §1, §2, §3, §4

[7] = system: Keratinocytes (Heka, Hekn); conditions: SKIN: Keratinocytes (Heka, Hekn)
Method: as §1, §2, §3, §4

[8] = system: MCF-7
Method: as §1, §2, §3, §4

[9] = system: MDA MB 468
Method: as §1, §2, §3, §4

[10] = system: Mammary fiboblasts: 184A1 and 184B5; conditions: BREAST: Mammary fiboblasts 184A1 and 184B5
Method: as §1, §2, §3, §4

[11] = system: Melanocytes (Hema, LP); conditions: SKIN: Melanocytes (Hema, LP)
Method: as §1, §2, §3, §4

[12] = system: Melanoma (Skmel 2)
Method: as §1, §2, §3, §4

[13] = system: Melanoma (Skmel 28)
Method: as §1, §2, §3, §4

[14] = system: Osteosarcoma (143b)
Method: as §1, §2, §3, §4

[15] = system: PC3
Method: as §1, §2, §3, §4

[16] = system: PaCa2
Method: as §1, §2, §3, §4

[17] = system: SCC, Squamous cell carcinoma
Method: as §1, §2, §3, §4

[18] = system: SkBr-3
Method: as §1, §2, §3, §4

[19] = system: ZR-75
Method: as §1, §2, §3, §4

## Coenzyme Q10 [CoQ10]
[1]
  Indication of Early apoptosis (Bcl-2, annexin V, or caspase activation): None
[2]; BREAST: BT-20
  Indication of Early apoptosis (Bcl-2, annexin V, or caspase activation): Strong
[2]; BT-20
  Minimal CoQ10 Concentration required for induction of early apoptosis: 100 µM
  Treatment Time required for induction of early apoptosis: 48 h
[3]
  Minimal CoQ10 Concentration required for induction of early apoptosis: 5 µM
  Treatment Time required for induction of early apoptosis: 1 h
[4]
  Indication of Early apoptosis (Bcl-2, annexin V, or caspase activation): None
[5]; Hep3B
  Minimal CoQ10 Concentration required for induction of early apoptosis: 50 µM
  Treatment Time required for induction of early apoptosis: 24 h
[5]; LIVER: Hep3B
  Indication of Early apoptosis (Bcl-2, annexin V, or caspase activation): Very Strong
[6]; HepG2
  Minimal CoQ10 Concentration required for induction of early apoptosis: 50 µM
  Treatment Time required for induction of early apoptosis: 24 h
[6]; LIVER: HepG2
  Indication of Early apoptosis (Bcl-2, annexin V, or caspase activation): Very Strong
[7]
  Indication of Early apoptosis (Bcl-2, annexin V, or caspase activation): None
[8]; BREAST: MCF-7
  Indication of Early apoptosis (Bcl-2, annexin V, or caspase activation): Strong
[8]; MCF-7
  Minimal CoQ10 Concentration required for induction of early apoptosis: 50 µM
  Treatment Time required for induction of early apoptosis: 48 h
[9]; BREAST: MDA MB 468
  Indication of Early apoptosis (Bcl-2, annexin V, or caspase activation): Strong
[9]; MDA MB 468
  Minimal CoQ10 Concentration required for induction of early apoptosis: 100 µM
  Treatment Time required for induction of early apoptosis: 48 h
[10]
  Indication of Early apoptosis (Bcl-2, annexin V, or caspase activation): None
[11]
  Indication of Early apoptosis (Bcl-2, annexin V, or caspase activation): None
[12]; Melanoma (Skmel 2)
  Minimal CoQ10 Concentration required for induction of early apoptosis: 25 µM
  Treatment Time required for induction of early apoptosis: 24 h
[12]; SKIN: Melanoma (Skmel 2)
  Indication of Early apoptosis (Bcl-2, annexin V, or caspase activation): Very Strong
[13]; Melanoma (Skmel 28)
  Minimal CoQ10 Concentration required for induction of early apoptosis: 20 µM
  Treatment Time required for induction of early apoptosis: 24 h
[13]; SKIN: Melanoma (Skmel 28)
  Indication of Early apoptosis (Bcl-2, annexin V, or caspase activation): Strong
[14]; BONE: Osteosarcoma (143b)
  Indication of Early apoptosis (Bcl-2, annexin V, or caspase activation): Very Strong
[14]; Osteosarcoma (143b)
  Minimal CoQ10 Concentration required for induction of early apoptosis: 50 µM
  Treatment Time required for induction of early apoptosis: 48 h
[15]; PC3
  Minimal CoQ10 Concentration required for induction of early apoptosis: 25 µM
  Treatment Time required for induction of early apoptosis: 24 h
[15]; PROSTATE: PC3
  Indication of Early apoptosis (Bcl-2, annexin V, or caspase activation): Very Strong
[16]; PANCREAS: PaCa2
  Indication of Early apoptosis (Bcl-2, annexin V, or caspase activation): Very Strong
[16]; PaCa2
  Minimal CoQ10 Concentration required for induction of early apoptosis: 25 µM
  Treatment Time required for induction of early apoptosis: 24 h
[17]; SCC
  Minimal CoQ10 Concentration required for induction of early apoptosis: 25 µM
  Treatment Time required for induction of early apoptosis: 24 h
[17]; SKIN: SCC
  Indication of Early apoptosis (Bcl-2, annexin V, or caspase activation): Very Strong
[18]; BREAST: SkBr-3
  Indication of Early apoptosis (Bcl-2, annexin V, or caspase activation): Very Strong
[18]; SkBr-3
  Minimal CoQ10 Concentration required for induction of early apoptosis: 50 µM
  Treatment Time required for induction of early apoptosis: 24 h
[19]; BREAST: ZR-75
  Indication of Early apoptosis (Bcl-2, annexin V, or caspase activation): Slight
[19]; ZR-75
  Minimal CoQ10 Concentration required for induction of early apoptosis: 200 µM
  Treatment Time required for induction of early apoptosis: 72 h
